Reference: BindingDB's records for PubMed 8558460 (Yamanouchi Pharmaceutical, 1996)
Where “and” joins values, the source holds several entries; their conditions need not be identical. Equal values may be shown once.

What was measured:
[1] = biological target: Glutamate receptor ionotropic, kainate 1 (Rattus norvegicus, UniProt P22756)
[2] = biological target: Glutamate receptor ionotropic, NMDA 1 (Rattus norvegicus, UniProt P35439)
Glutamate receptor 3 = Glutamate receptor 3 (Rattus norvegicus, UniProt P19492)
Glutamate receptor 3, sequence (P19492 whole entry): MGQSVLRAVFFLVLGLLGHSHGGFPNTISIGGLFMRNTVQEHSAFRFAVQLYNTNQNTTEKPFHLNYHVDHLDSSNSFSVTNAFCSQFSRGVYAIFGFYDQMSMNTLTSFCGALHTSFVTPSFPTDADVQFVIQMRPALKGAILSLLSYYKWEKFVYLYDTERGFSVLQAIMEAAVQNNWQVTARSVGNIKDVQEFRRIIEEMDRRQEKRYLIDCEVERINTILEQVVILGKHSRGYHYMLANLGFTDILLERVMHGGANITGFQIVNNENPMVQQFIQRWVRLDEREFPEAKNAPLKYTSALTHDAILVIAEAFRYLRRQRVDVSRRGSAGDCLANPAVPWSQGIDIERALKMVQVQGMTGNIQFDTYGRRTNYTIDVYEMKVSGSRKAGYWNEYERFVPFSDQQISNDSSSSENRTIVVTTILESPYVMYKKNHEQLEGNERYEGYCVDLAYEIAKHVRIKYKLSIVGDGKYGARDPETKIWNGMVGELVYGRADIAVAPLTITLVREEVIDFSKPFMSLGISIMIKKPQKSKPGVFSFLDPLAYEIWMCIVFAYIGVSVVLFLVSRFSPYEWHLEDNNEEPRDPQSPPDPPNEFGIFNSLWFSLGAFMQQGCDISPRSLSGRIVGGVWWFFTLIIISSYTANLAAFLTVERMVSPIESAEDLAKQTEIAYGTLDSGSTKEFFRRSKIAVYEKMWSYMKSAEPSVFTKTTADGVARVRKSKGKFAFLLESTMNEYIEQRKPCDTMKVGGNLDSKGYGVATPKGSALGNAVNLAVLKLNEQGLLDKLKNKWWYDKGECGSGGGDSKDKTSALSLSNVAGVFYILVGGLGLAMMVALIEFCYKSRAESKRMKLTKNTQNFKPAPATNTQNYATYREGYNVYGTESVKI

Glutamate receptor ionotropic, kainate 1, sequence (P22756 whole entry): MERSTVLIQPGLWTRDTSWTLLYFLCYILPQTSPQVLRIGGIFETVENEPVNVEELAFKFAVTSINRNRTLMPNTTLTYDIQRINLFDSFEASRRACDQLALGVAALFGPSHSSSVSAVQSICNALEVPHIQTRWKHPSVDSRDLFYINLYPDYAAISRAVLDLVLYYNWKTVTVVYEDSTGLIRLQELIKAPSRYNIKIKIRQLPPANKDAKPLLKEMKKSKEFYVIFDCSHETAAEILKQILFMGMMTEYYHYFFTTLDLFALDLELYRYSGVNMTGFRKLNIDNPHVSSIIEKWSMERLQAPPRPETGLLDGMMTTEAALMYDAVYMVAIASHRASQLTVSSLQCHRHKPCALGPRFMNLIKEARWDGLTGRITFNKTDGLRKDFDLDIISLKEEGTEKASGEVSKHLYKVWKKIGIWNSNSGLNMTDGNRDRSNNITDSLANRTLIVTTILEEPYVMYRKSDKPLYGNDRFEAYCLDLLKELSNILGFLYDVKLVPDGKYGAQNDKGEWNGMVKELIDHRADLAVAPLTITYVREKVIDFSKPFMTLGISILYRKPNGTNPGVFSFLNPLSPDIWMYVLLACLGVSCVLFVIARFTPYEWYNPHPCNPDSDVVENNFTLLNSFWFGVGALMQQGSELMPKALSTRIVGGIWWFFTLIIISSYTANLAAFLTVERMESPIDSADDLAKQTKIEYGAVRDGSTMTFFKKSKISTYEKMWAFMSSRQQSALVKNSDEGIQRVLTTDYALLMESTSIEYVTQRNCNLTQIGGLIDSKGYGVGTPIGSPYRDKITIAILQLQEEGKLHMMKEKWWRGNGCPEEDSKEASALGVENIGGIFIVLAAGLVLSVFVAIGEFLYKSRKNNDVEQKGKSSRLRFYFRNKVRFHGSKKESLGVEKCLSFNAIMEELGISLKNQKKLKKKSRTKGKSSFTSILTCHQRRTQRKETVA

Ki [1] | Ki [2] | Ki (Glutamate receptor 3) | SMILES
1800 nM | > 10000 nM and 5600 nM | – | N#Cc1cc2nc(O)c(O)nc2cc1[N+](=O)[O-] [7-Cyano-3-hydroxy-6-nitro-quinoxalin-2-ol anion]
2200 nM | > 10000 nM | 84 nM | O=C1N=c2cc(N(O)O)c(-n3ccnc3)cc2=NC1=O [CAS_3035216]
